{
  "source": "patent US20230235374A1",
  "about": "“High Throughput Assays for Detecting Translation Readthrough Inducers” (The Trustees of the University of Pennsylvania, priority 2021, published 2023)",
  "type_in_all_cases": "binding, shrimp (Artemia salina)",
  "key": {"[1]": {"test_system": "rRNA fragments I-IV of 80S-IRES", "test": "RNaseH fragment assay, 80S-IRES", "method": "(§1) RNaseH Fragment Assay. Total RNA was prepared from the ^3H-AzAt photoaffinity labeled ribosome by phenol-chloroform extraction. RNA: DNA duplexes were formed by incubating total RNA (0.2 μM) with an oligonucleotide pair (1 μM of each, sequences shown Table 1), flanking a specific RNA region, in 22.8 μL of water at 95° C. for 2 min, followed by annealing at 50° C. for 30 s and quenching on ice. Six units (1.2 μL) of RNase H (NEB) and 6 μl of 5×RNase H Reaction Buffer were next added to the RNA: DNA duplex and incubated at 37° C. for 1 hour, followed by phenol-chloroform extraction of RNA. The digested RNA was separated on 12% TBE-Urea PAGE gel, and the target band along with the adjacent upper and bottom gels were sliced by a 2 mm gel cutter. The gel slices were crushed and the ^3H labeled rRNA fragment was extracted in water by vigorously shaking at 70° C. for 30 min, or by overnight extraction in elution buffer (0.3M sodium acetate, 0.25% SDS, 1 mM EDTA). The slurry was removed by centrifugation and the eluted ^3H labeled rRNA in the supernatant was quantified. The stoichiometry of AzAt photoincorporation was calculated based on a gel recovery yield of 20±2%, determined using an authentic sample of [^3H]-Gln-tRNA^Gln.\n(§2) Testing the functional pertinence of AzAt photolabeling of 18S A1195, 28S-A3093, 28S-A2672, and 28S-2669. An RNAse H fragment assay was employed to determine whether the potential functionally significant sites identified by LASER-seq correspond to ataluren binding sites relevant for termination activity. In this assay, oligonucleotide hybridization, RNase H digestion and polyacrylamide gel electrophoresis (PAGE) were used to determine the stoichiometry of [^3H]-AzAt photoincorporation into the three rRNA fragments that together include the four nucleotides of interest: Fragment I, 18S-A1195; Fragment II, 26S-A3093; Fragment III, 26S-A2669 and 26S-A2672 (Table 5). The separate addition of four potential competitors of AzAt binding (eRF1 alone, the stably bound eRF1.eRF3.GDPNP complex, ataluren, and the ataluren-like TRID GJ072) was used to test how these affected such photoincorporation. These experiments, the results of which are summarized in Table 5, were performed at two different AzAt concentrations. eRF1 and eRF1.eRF3.GDPNP effects were measured using 300 μM AzAt, paralleling the LASER-Seq PAL experiments."}, "[2]": {"test_system": "rRNA fragments I-IV of Stop-POST5", "test": "RNaseH fragment assay, Stop-POST5", "method": "as §1, §2"}, "[3]": {"test_system": "Small RNAs within Stop-POST5 complex", "test": "AzAt photoincorporation into small RNAs (urea-PAGE, RNAse H fragments)", "method": "FIG. 11 illustrates 8% Urea-PAGE resolution of small RNAs.\nPhotoaffinity labeling with [^3H]-AzAt. Samples in Buffer 4, typically 20 μL, were incubated in the dark (20 min for Stop-POST5 and 80S-IRES complexes, 2 min for release factors) with various concentrations of [^3H]-AzAt at 37° C., transferred to a UV-transparent cuvette which was covered with parafilm to prevent evaporation, and irradiated in a Rayonet photochemical reactor equipped with 300 nm UV lamps for 5 min at room temperature. This was followed by quenching with 2 mM DTT at 37° C. for 5 min under ambient light. The irradiation time gave complete photolysis of the phenyl azide moiety in AzAt. Photolysis was also complete at 5 min in the presence of 1 mM ataluren, ruling out internal filtering effects.\nStop-POST5 and 80S-IRES complexes. 1 μM solutions of either Stop-POST5 or 80S-S.IRES, determined by A260, were photolabeled by [^3H]-AzAt. The sample was then either directly purified by ultracentrifugation through a sucrose cushion to determine the photoincorporation stoichiometry in the complex, or subjected to phenol/chloroform extraction to determine the photoincorporation stoichiometry in the total RNA. To determine the photoincorporation background arising from incomplete removal of noncovalently bound photolyzed AzAt, AzAt was prephotolysed for 5 min before adding to the complex, followed by the 20 min incubation in dark at 37° C. and subsequent sucrose cushion purification or RNA extraction as described above.\nas §1\nSmall RNAs. AzAt photoincorporation into the 4 small RNAs (CrPV-IRES, 5.8S rRNA, 5S rRNA, and tRNA) contained within POST5 was examined by one-dimensional (1D) urea-PAGE analysis, by RNA-Seq, and by RNAse H fragment assay (FIG. 11)."}, "[4]": {"conditions": "80S-IRES, PAL, 300 μM AzAt, alone or plus competing ligand named as label"}, "[5]": {"conditions": "Stop-POST5, PAL, 300 μM AzAt, alone or plus competing ligand named as label"}, "[6]": {"conditions": "PAL, 300 μM AzAt, alone or plus competing ligand named as label"}},
  "data": [
    {"substance": "eRF1/eRF3/GDPNP: stably bound ternary complex of eRF1, eRF3 and GDPNP used as competing ligand", "values": [
      {"measurement": "Photoincorporation yields into 18S A1195/ I: 18S 1151-1206", "setting": "[1]; [4]", "result": "0.56 ± 0.06", "unit": "mole %"},
      {"measurement": "Photoincorporation yields into 26S-A2669:A2672/ III: 26S 2638-2702", "setting": "[1]; [4]", "result": "0.94 ± 0.23", "unit": "mole %"},
      {"measurement": "Photoincorporation yields into 26S-A3093/ II: 26S 3069-3113", "setting": "[1]; [4]", "result": "0.55 ± 0.12", "unit": "mole %"},
      {"measurement": "effect on AzAt photoincorporation into Fragment I", "setting": "[1]; 80S.IRES complex", "result": "only partial inhibition"},
      {"measurement": "effect on AzAt photoincorporation into Fragments II and III", "setting": "[1]; 80S.IRES complex", "result": "essentially no inhibition"},
      {"measurement": "Photoincorporation yields into RNAse H Fragment IV: 26S 1413-1476", "setting": "[1]; 80S.IRES, PAL, 300 μM AzAt, alone or plus competing ligand named as label", "result": "0.30 ± 0.03", "unit": "%"},
      {"measurement": "Photoincorporation yields into 26S-A2669:A2672/ III: 26S 2638-2702", "setting": "[2]; [5]", "result": "0.19 ± 0.02", "unit": "mole %"},
      {"measurement": "Photoincorporation yields into 26S-A3093/ II: 26S 3069-3113", "setting": "[2]; [5]", "result": "0.18 ± 0.10", "unit": "mole %"},
      {"measurement": "Photoincorporation yields into RNAse H Fragment IV: 26S 1413-1476", "setting": "[2]; Stop-POST5, PAL, 300 μM AzAt, alone or plus competing ligand named as label (eRF1 2 μM, eRF3 4 μM, GDPNP 1 mM)", "result": "0.20 ± 0.01", "unit": "%"},
      {"measurement": "Photoincorporation yields into 18S A1195/ I: 18S 1151-1206", "setting": "[2]; Stop-POST5, PAL, 300 μM AzAt, alone or plus competing ligand named as label (eRF1 2 μM, eRF3 4 μM, GDPNP)", "result": "0.07 ± 0.03", "unit": "mole %"},
      {"measurement": "effect on AzAt photoincorporation into Fragments I, II, and III", "setting": "[2]; Stop-POST5 complex", "result": "strongly inhibited"},
      {"measurement": "effect on AzAt labeling of CrPV-IRES", "setting": "[3]; 300 μM AzAt", "result": "partial but significant reduction"},
      {"measurement": "Photoincorporation yields into CrPV-IRES nts1-155", "setting": "[3]; PAL, 300 μM AzAt, alone (AzAt) or plus competing ligand named as label (eRF1 2 μM, eRF3 4 μM, GDPNP 1 mM)", "result": "4.6 ± 1.4", "unit": "mole %"},
      {"measurement": "Photoincorporation yields into 5S rRNA", "setting": "[3]; [6]", "result": "1.3 ± 0.2", "unit": "mole %"},
      {"measurement": "Photoincorporation yields into 5.8S rRNA", "setting": "[3]; [6]", "result": "0.80 ± 0.02", "unit": "mole %"},
      {"measurement": "Photoincorporation yields into CrPV-IRES All", "setting": "[3]; [6]", "result": "5.4 ± 0.6", "unit": "mole %"},
      {"measurement": "Photoincorporation yields into CrPV-IRES nts156-221", "setting": "[3]; [6]", "result": "2.9 ± 0.6", "unit": "mole %"},
      {"measurement": "Photoincorporation yields into CrPV-IRES nts222-278", "setting": "[3]; [6]", "result": "0.08 ± 0.11", "unit": "mole %"},
      {"measurement": "Photoincorporation yields into tRNA^Gln", "setting": "[3]; [6]", "result": "2.2 ± 0.2", "unit": "mole %"},
      {"measurement": "effect on AzAt labeling of CrPV-IRES fragments 1-155 and 156-221", "setting": "[3]; RNAse H fragment assay", "result": "Only minor decreases"}
    ]}
  ]
}
